Source: paper PMC8289695 (Cell Reports, 2021)

System: SARS-CoV-2
Type: cell-based, strain USA_WA1/2020
Settings: for time of addition: single treatment 1 h prior to infection, compound removed prior to infection: VPS34-IN1 and PIK-III at 5 μM

SMILES | time of addition: single treatment 1 h prior to infection, compound removed prior to infection | time of addition: dosing at 2 hpi or 4 hpi
Nc1ncc(-c2ccnc(Nc3ccncc3)n2)c(CC2CC2)n1 [PIK-III] | inhibited SARS-CoV-2 replication | –
CC(C)(O)CNc1ncc(-c2ccnc(Nc3ccnc(Cl)c3)n2)c(CC2CC2)n1 [VPS34-IN1] | inhibited SARS-CoV-2 replication | –
CCCCCCCCCCC[C@@H](C[C@@H]1OC(=O)[C@H]1CCCCCC)OC(=O)[C@H](CC(C)C)NC=O [orlistat] | minimal efficacy | remained inhibitory
CCC/C=C/C/C=C/C=C/C=N/NN=O [triacsin C] | minimal efficacy | remained inhibitory
